We go through 27 molecules from patent US20260022096A1, “NOVEL SULFONAMIDES AND THEIR USE AS NEUROPROTECTIVE AND/OR NEURORESTORATIVE AGENTS” (GENECODE, priority 2022, published 2026).

Where only a bound is given, the exact number is not on record here.

The assay addresses T1, GFRα1-RET (Homo sapiens, UniProt P56159).
T1 construct: expressed in transfected cells; host or cells: MG87 murine fibroblasts, stably transfected
T1 sequence (P56159 25-429 limits assumed): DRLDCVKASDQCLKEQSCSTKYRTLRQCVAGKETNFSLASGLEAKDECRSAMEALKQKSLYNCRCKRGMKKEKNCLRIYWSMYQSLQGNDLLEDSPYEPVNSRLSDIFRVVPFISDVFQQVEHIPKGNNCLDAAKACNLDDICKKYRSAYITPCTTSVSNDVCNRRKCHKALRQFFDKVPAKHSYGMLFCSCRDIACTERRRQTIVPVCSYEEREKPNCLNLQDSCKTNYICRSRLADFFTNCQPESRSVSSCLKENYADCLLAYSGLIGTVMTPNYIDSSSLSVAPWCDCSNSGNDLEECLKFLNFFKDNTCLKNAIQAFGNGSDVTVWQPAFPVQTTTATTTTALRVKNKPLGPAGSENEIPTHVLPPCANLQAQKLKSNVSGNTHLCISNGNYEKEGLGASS
Put plainly: Elk1 reporter-gene (luciferase) assay in cells expressing GFRα1-RET. The format is cell-based. The settings on record: MG87 murine fibroblasts stably transfected with PathDetect Elk-1, GFRα1 and RET, 6 concentrations, agonist/activator activity. The procedure:
For ECso determination, a dose-response test was performed using 6 concentrations of each tested compound. Dose-response curves were fitted using the sigmoidal dose-response (variable slope) analysis in GraphPad Prism program (Graph Pad Inc) and ECso of agonist/activator activity was calculated. Dose-response experiments were all performed in duplicate, two times independently.
As usually defined, the EC50 is the concentration giving half of the maximal effect. `COc1ccc(S(=O)(=O)NC(C)(C)C)cc1N1[C@@H]2CC[C@H]1CN(C(=O)c1cc(F)c(F)cc1Cl)C2` [compound 129, N-tert-butyl-3-[(1S,5R)-3-(2-chloro-4,5-difluoro-benzoyl)-3,8-diazabicyclo[3.2.1]octan-8-yl]-4-methoxy-benzenesulfonamide] gave an EC50 of less than 1000 nM.
Next, `CN(C(C)(C)C)S(=O)(=O)c1cc(Cl)c(Cl)c(N2[C@@H]3CC[C@H]2CN(C(=O)c2ccc(F)cc2Cl)C3)c1` [compound 133, N-tert-butyl-3,4-dichloro-5-[(1S,5R)-3-(2-chloro-4-fluoro-benzoyl)-3,8-diazabicyclo[3.2.1]octan-8-yl]-N-methyl-benzenesulfonamide]: less than 1000 nM; `O=C(c1ccc(F)cc1Cl)N1C[C@H]2CC[C@@H](C1)N2c1cc(S(=O)(=O)N2CCC(c3ccccc3)CC2)ccc1C1CC1` [compound 080, (2-chloro-4-fluoro-phenyl)-[(1S,5R)-8-[2-cyclopropyl-5-[(4-phenyl-1-piperidyl)sulfonyl]phenyl]-3,8-diazabicyclo[3.2.1]octan-3-yl]methanone]: less than 1000 nM; `CC(C)(O)c1ccc(S(=O)(=O)N2CCC(c3ccccc3)CC2)cc1N1[C@@H]2CC[C@H]1CN(C(=O)c1ccc(F)cc1Cl)C2` [compound 072, (2-chloro-4-fluoro-phenyl)-[(1S,5R)-8-[2-(1-hydroxy-1-methyl-ethyl)-5-[(4-phenyl-1-piperidyl)sulfonyl]phenyl]-3,8-diazabicyclo[3.2.1]octan-3-yl]methanone]: 1000 to 10000 nM.
The value for `CN(C1COC1)S(=O)(=O)c1cc(Cl)c(O)c(N2[C@@H]3CC[C@H]2CN(C(=O)c2ccc(F)cc2Cl)C3)c1` [compound 109, 3-chloro-5-[(1S,5R)-3-(2-chloro-4-fluoro-benzoyl)-3,8-diazabicyclo[3.2.1]octan-8-yl]-4-hydroxy-N-methyl-N-(oxetan-3-yl)benzenesulfonamide] was 1000 to 10000 nM; that for `CC(NS(=O)(=O)c1cc(Cl)c(O)c(N2C3CCC2CN(C(=O)c2ccc(F)cc2Cl)C3)c1)C(F)(F)F` (racemic) [compound 104, 3-chloro-5-[(1S,5R)-3-(2-chloro-4-fluoro-benzoyl)-3,8-diazabicyclo[3.2.1]octan-8-yl]-4-hydroxy-N-[(1SR)-2,2,2-trifluoro-1-methyl-ethyl]benzenesulfonamide] was 1000 to 10000 nM.
The value for `COc1ccc(S(=O)(=O)N2CCC(CCc3ccccc3)CC2)cc1N1[C@@H]2CC[C@H]1CN(C(=O)c1cc(F)c(F)cc1Cl)C2` [compound 050, (2-chloro-4,5-difluoro-phenyl)-[(1S,5R)-8-[2-methoxy-5-[[4-(2-phenylethyl)-1-piperidyl]sulfonyl]phenyl]-3,8-diazabicyclo[3.2.1]octan-3-yl]methanone] was less than 1000 nM.
Regarding `CC(C)(C)NS(=O)(=O)c1cc(Cl)c(O)c(N2[C@@H]3CC[C@H]2CN(C(=O)c2ccc(F)cc2Cl)C3)c1` [compound 095, N-tert-butyl-3-chloro-5-[(1S,5R)-3-(2-chloro-4-fluoro-benzoyl)-3,8-diazabicyclo[3.2.1]octan-8-yl]-4-hydroxy-benzenesulfonamide], the EC50 was less than 1000 nM.
Next, `COc1ccc(S(=O)(=O)N2CCC(F)CC2)cc1N1[C@@H]2CC[C@H]1CN(C(=O)c1ccc(F)cc1Cl)C2` [compound 006]: 1000 to 10000 nM.
The value for `O=C(c1ccc(F)cc1Cl)N1C[C@H]2CC[C@@H](C1)N2c1cc(S(=O)(=O)N2CCC(c3ccccc3)CC2)cc(F)c1O` [compound 083, (2-chloro-4-fluoro-phenyl)-[(1S,5R)-8-[3-fluoro-2-hydroxy-5-[(4-phenyl-1-piperidyl)sulfonyl]phenyl]-3,8-diazabicyclo[3.2.1]octan-3-yl]methanone] was less than 1000 nM.
The value for `CN(C)Cc1ccc(S(=O)(=O)N2CCC(c3ccccc3)CC2)cc1N1[C@@H]2CC[C@H]1CN(C(=O)c1ccc(F)cc1Cl)C2` [compound 073, (2-chloro-4-fluoro-phenyl)-[(1S,5R)-8-[2-[(dimethylamino)methyl]-5-[(4-phenyl-1-piperidyl)sulfonyl]phenyl]-3,8-diazabicyclo[3.2.1]octan-3-yl]methanone] was 1000 to 10000 nM.
For `CCCN(C)S(=O)(=O)c1ccc(F)c(N2[C@@H]3CC[C@H]2CN(C(=O)c2ccc(F)cc2Cl)C3)c1` [compound 026], the EC50 is 1000 to 10000 nM.
The value for `CCCN(C)S(=O)(=O)c1ccc(OC)c(N2[C@@H]3COC[C@H]2CN(C(=O)c2ccc(F)cc2C(F)(F)F)C3)c1` [compound 023, 3-[(1S,5R)-7-[4-fluoro-2-(trifluoromethyl)benzoyl]-3-oxa-7,9-diazabicyclo[3.3.1]nonan-9-yl]-4-methoxy-N-methyl-N-propyl-benzenesulfonamide] was 10000 to 50000 nM; that for `CC1(NS(=O)(=O)c2cc(Cl)c(O)c(N3[C@@H]4CC[C@H]3CN(C(=O)c3ccc(F)cc3Cl)C4)c2)COC1` [compound 108] was 1000 to 10000 nM.
The value for `Cc1ccc(S(=O)(=O)N2CCC(c3ccccc3)CC2)cc1N1[C@@H]2CC[C@H]1CN(C(=O)c1ccc(F)cc1Cl)C2` [compound 067, (2-chloro-4-fluoro-phenyl)-[(1S,5R)-8-[2-methyl-5-[(4-phenyl-1-piperidyl)sulfonyl]phenyl]-3,8-diazabicyclo[3.2.1]octan-3-yl]methanone] was less than 1000 nM.
Next, `O=C(c1ccc(F)cc1Cl)N1C[C@H]2CC[C@@H](C1)N2c1cc(S(=O)(=O)N2CCC(c3ccc(F)cc3)CC2)cc(Cl)c1O` [compound 099, (2-chloro-4-fluoro-phenyl)-[(1S,5R)-8-[3-chloro-5-[[4-(4-fluorophenyl)-1-piperidyl]sulfonyl]-2-hydroxy-phenyl]-3,8-diazabicyclo[3.2.1]octan-3-yl]methanone]: less than 1000 nM; `O=C(O)c1ccc(S(=O)(=O)N2CCC(c3ccccc3)CC2)cc1N1[C@@H]2CC[C@H]1CN(C(=O)c1ccc(F)cc1Cl)C2` [compound 071, 2-[(1S,5R)-3-(2-chloro-4-fluoro-benzoyl)-3,8-diazabicyclo[3.2.1]octan-8-yl]-4-[(4-phenyl-1-piperidyl)sulfonyl]benzoic acid]: less than 1000 nM.
For the molecule `CCCN(C)S(=O)(=O)c1ccc(OC)c(N2CCN(C(=O)c3ccc(F)cc3C(F)(F)F)CC2C)c1` (racemic) [compound 021, 4-methoxy-N-methyl-N-propyl-3-[rac-(2S)-4-[4-fluoro-2-(trifluoromethyl)benzoyl]-2-methyl-piperazin-1-yl]benzenesulfonamide], the EC50 is 1000 to 10000 nM.
The value for `Cc1c(Cl)cc(S(=O)(=O)NC(C)(C)C)cc1N1[C@@H]2CC[C@H]1CN(C(=O)c1ccc(F)cc1Cl)C2` [compound 074, N-tert-butyl-3-chloro-5-[(1S,5R)-3-(2-chloro-4-fluoro-benzoyl)-3,8-diazabicyclo[3.2.1]octan-8-yl]-4-methyl-benzenesulfonamide] was less than 1000 nM; that for `COc1ccc(S(=O)(=O)N2CCN(c3ncccn3)CC2)cc1N1[C@@H]2CC[C@H]1CN(C(=O)c1ccc(F)cc1Cl)C2` [compound 013] was 1000 to 10000 nM; that for `COc1ccc(S(=O)(=O)N2CCC(c3ccc(F)cc3)CC2)cc1N1[C@@H]2CC[C@H]1CN(C(=O)c1ccc(F)cc1Cl)C2` [compound 039, (2-chloro-4-fluoro-phenyl)-[(1S,5R)-8-[5-[[4-(4-fluorophenyl)-1-piperidyl]sulfonyl]-2-methoxy-phenyl]-3,8-diazabicyclo[3.2.1]octan-3-yl]methanone] was less than 1000 nM.
The value for `COc1ccc(S(=O)(=O)N2CCN(CCc3ccc(Cl)cc3)CC2)cc1N1[C@@H]2CC[C@H]1CN(C(=O)c1ccc(F)cc1Cl)C2` [compound 048, (2-chloro-4-fluoro-phenyl)-[(1S,5R)-8-[5-[4-[2-(4-chlorophenyl)ethyl]piperazin-1-yl]sulfonyl-2-methoxy-phenyl]-3,8-diazabicyclo[3.2.1]octan-3-yl]methanone] was less than 1000 nM; that for `COCCOc1c(Cl)cc(S(=O)(=O)NC(C)(C)C)cc1N1[C@@H]2CC[C@H]1CN(C(=O)c1ccc(F)cc1Cl)C2` [compound 113] was less than 1000 nM; that for `COc1ccc(S(=O)(=O)N2CCN(Cc3ccccc3)CC2)cc1N1[C@@H]2CC[C@H]1CN(C(=O)c1ccc(F)cc1Cl)C2` [compound 014] was 1000 to 10000 nM.
On to `COc1ccc(S(=O)(=O)N2CCC(C(F)(F)F)CC2)cc1N1[C@@H]2CC[C@H]1CN(C(=O)c1ccc(F)cc1Cl)C2` [compound 007, (2-chloro-4-fluoro-phenyl)-[(1S,5R)-8-[2-methoxy-5-[[4-(trifluoromethyl)-1-piperidyl]sulfonyl]phenyl]-3,8-diazabicyclo[3.2.1]octan-3-yl]methanone], for which the 50% effective concentration (EC50) is less than 1000 nM.
The value for `CN(C(C)(C)C)S(=O)(=O)c1cc(Cl)c(O)c(N2[C@@H]3CC[C@H]2CN(C(=O)c2ccc(F)cc2Cl)C3)c1` [compound 107] was less than 1000 nM; that for `CC(C)(C)NS(=O)(=O)c1cc(Cl)c(Cl)c(N2[C@@H]3CC[C@H]2CN(C(=O)c2ccc(F)cc2Cl)C3)c1` [compound 075, N-tert-butyl-3,4-dichloro-5-[(1S,5R)-3-(2-chloro-4-fluoro-benzoyl)-3,8-diazabicyclo[3.2.1]octan-8-yl]benzenesulfonamide] was less than 1000 nM.
